Reference: US5302590A, “Compounds useful as dual antagonists of platelet activating factor and leukotriene D4” (Hoffmann-La Roche Inc., priority 1992, dated 1994)
Read-outs that look alike come from different tables or passages of the source.

What was measured:
[1] = system: platelet activating factor (PAF); assay: PAF Induced Bronchoconstriction Assay; type: in vivo, guinea pig; details: for ED50: Cavia porcellus, Platelet, read-out: PAF-induced bronchoconstriction ID50; for antagonist activity against bronchoconstriction induced by PAF or LTD4: administered IV, statement covers both PAF and LTD4; for PAF-induced bronchoconstriction, percent inhibition: 10 mg/kg
Method: (§1) The relative potency (ID50 values) of test compounds administered by the intravenous and oral route was determined by administering increasing doses of test compound. For determination of the time course of inhibition for various compounds, the time between administration of compound and challenge with LTD was varied. The time course of activity was calculated as the time when inhibition decreased to 40%.
Male animals (Hartlet Strain, 400-500 g were anesthetized with urethane (2 g/kg, i.p.). Each animals' trachea was cannulated and the guinea pigs were respirated using a Harvard small animal rodent respirator (3.0 cc stroke volume, 40 breaths per min.). Tracheal pressure was recorded from a cannula inserted in the trachea and connected to a Statham pressure transducer.
The jugular vein was cannulated for administering compounds. Spontaneous breathing was arrested with succinylcholine (1.2 mg/kg, i.v.) administered 2 minutes prior to intravenous injection of platelet activating factor PAF).
For the intravenous testing, the guinea pig is given a 1-minute pretreatment with propranolol at a dose of 0.1 mg/kg intravenously. The test compound is administered with a 1 minute pretreatment prior to intravenous challenge with PAF. The animal is then challenged with a 1 μg/kg intravenous dose of PAF and the change in tracheal pressure is measured.
For the oral testing, the procedure includes a 2-hour pretreatment period with the test compound administered through an oral gavage tube. Propranolol or succinylcholine and PAF are administered intravenously, and the change in tracheal pressure measured.
The change in tracheal pressure is determined by subtracting the steady state baseline achieved after administration of succinylcholine from the peak bronchoconstriction seen after challenge with PAF. The mean is calculated for each test compound and compared to the mean of the control animals to give the percent inhibition of bronchoconstriction. The standard error is calculated as the standard error of the mean.
(§2) The compounds listed below were evaluated for antagonist activity against bronchoconstriction induced by PAF or LTD4. Comparative data for a known LTD4 antagonist (Compound B) and a known PAF antagonist (Compound A) are also shown.
(§3) Compounds C, D and E were administered orally at a dose of 10 mg/kg.

leukotriene D4 (LTD4) = assay: Leukotriene-induced bronchoconstriction in guinea pigs, in vivo leukotriene D4 (LTD) antagonist test; set-up: species or system guinea pig (Hartley strain); details: for ED50: Cavia porcellus, read-out: LTD4-induced bronchoconstriction ID50
Method: Male guinea pigs (Hartley strain Charles River) weighing 300-500 g were anesthetized with urethane (~2 g/kg) intraperitoneally and a polyethylene cannula was inserted into the jugular vein for intravenous drug administration. Tracheal pressure (cm of H2 O) was recorded from a Statham pressure transducer (P 32 AA). Propranolol was administered 5 minutes prior to challenge with LTD. Two minutes later spontaneous breathing was arrested with succinylcholine chloride (1.2 mg/kg) administered intravenously, and the animals were ventilated with a Harvard (Model #680) small animal respirator set at 40 breaths/min and 4.0 cc stroke volume. Control vehicle or test drug was administered through the cannula into the jugular vein 1 minute before the animals were challenged intravenously with a maximum constrictory dose of LTD (25 μg/kg) given intravenously. The change in tracheal pressure was averaged for control and drug-treated animals and percent inhibition was calculated. For determination of oral activity, animals were dosed with test compound or vehicle two hours prior to challenge with LTD (25 μg/kg, i.v.).
as §1, §2, §3

[2] = 1 min, iv, 1 minute pretreatment, PAF 1 μg/kg i.v.
[3] = 1 min, iv, 1 minute before LTD 25 μg/kg i.v.
[4] = po, 10 mg/kg, two hours prior to LTD 25 μg/kg i.v.

Row | SMILES | ED50 [1, 2] [mg/kg] | ED50 ([1]; po, 2-hour pretreatment) [mg/kg] | LTD4-induced bronchoconstriction ID50 (leukotriene D4 (LTD4); iv, 1 minute before LTD 25 μg/kg i.v.) | LTD4-induced bronchoconstriction ID50 (leukotriene D4 (LTD4); po, two hours prior to LTD 25 μg/kg i.v.) | PAF-induced bronchoconstriction ID50 ([1]; iv, 1 minute pretreatment, PAF 1 μg/kg i.v.) | PAF-induced bronchoconstriction ID50 ([1]; po, 2-hour pretreatment) | ED50 (leukotriene D4 (LTD4); [3]) [mg/kg] | ED50 (leukotriene D4 (LTD4); 2 h, po, two hours prior to LTD 25 μg/kg i.v.) [mg/kg] | antagonist activity against bronchoconstriction induced by PAF or LTD4 [1] | PAF-induced bronchoconstriction, percent inhibition ([1]; po, 2-hour pretreatment) [%] | LTD4-induced bronchoconstriction, percent inhibition (leukotriene D4 (LTD4); [4]) [%] | LTD4-induced bronchoconstriction, percent inhibition (leukotriene D4 (LTD4); iv column, iv dose not given) [%]
1 | Cc1nnc2n1-c1sc(C#CCn3c(=O)c4ccccc4c4ccccc43)cc1C(c1ccccc1Cl)=NC2 [Compound A, 5-{3-[4-(2-Chlorophenyl)-9-methyl-6H-thieno[3,2f][1,2,4]triazolo[4,3-a][1,4]diazepin-2-yl]-2-propynyl}phenanthridin-6(5H)-one, reference compound] | 0.02 | 0.12 | Not Active | Not Active | – | – | – | – | – | – | – | –
2 | CCC(CC)(CC(=O)Nc1cccc(/C=C/c2nc(C3CCC3)cs2)c1)C(=O)O [Compound B, (E)-4-[3-[2-(4-Cyclobutyl-2-thiazolyl)ethenyl]phenylamino]2,2-diethyl-4-oxobutanoic acid, reference compound] | – | – | – | – | Not Active | Not Active | 0.13 | 0.12 | – | – | – | –
3 | Cc1nnc2n1-c1sc(CCc3ccc(CC(=O)Nc4cccc(/C=C/c5nc(C6CCC6)cs5)c4)c(C(=O)O)c3)cc1C(c1ccccc1Cl)=NC2.O [Compound C, (E)-5-[2-[4-(2-chlorophenyl)-9-methyl-6H-thieno-[3,2-f][1,2,4]triazolo[4,3-a][1,4]diazepin-2-yl]ethyl]-2-[2-[3-[2-(4-cyclobutyl-2-thiazolyl)ethenyl]phenylamino]-2-oxoethyl]-benzoic acid monohydrate] | 0.02 | – | – | – | – | – | 0.01 | – | very potent dual acting antagonists | 37 ± 1 | 48 ± 8 | –
4 | C=CCNC(=O)c1cc(CCc2cc3c(s2)-n2c(C)nnc2CN=C3c2ccccc2Cl)ccc1CC(=O)Nc1cccc(/C=C/c2nc(C3CCC3)cs2)c1 [Compound D, (E)-4-[2-[4-(2-Chlorophenyl)-9-methyl-6H-thieno-[3,2-f][1,2,4]triazolo[4,3-a][1,4]diazepin-2-yl]ethyl]-N-[3-[2-(4-cyclobutyl-2-thiazolyl)ethenyl]phenyl]-2-[(2-propenylamino)-carbonyl]benzeneacetamide] | 0.02 | – | – | – | – | – | 0.08 | – | very potent dual acting antagonists | 65 ± 1 | 44 ± 15 | –
5 | CCOC(=O)c1cc(CCc2cc3c(s2)-n2c(C)nnc2CN=C3c2ccccc2Cl)ccc1CC(=O)Nc1cccc(/C=C/c2nc(C3CCC3)cs2)c1 [Compound E, (E)-5-[2-[4-(2-Chlorophenyl)-9-methyl-6H-thieno-[3,2-f][1,2,4]triazolo[4,3-a][1,4]diazepin-2-yl]ethyl]-2-[2-[3-[2-(4-cyclobutyl-2-thiazolyl)ethenyl]phenylamino]-2-oxoethyl]-benzoic acid ethyl ester] | 0.02 | – | – | – | – | – | – | – | – | 14 ± 9 | – | 46 ± 7
